{"source": "patent US20040253692A1", "about": "“Streptomyces sp. CJPV975652 capable of converting compactin to pravastatin and method for producing pravastatin using the same” (priority 2003, published 2004)", "origin": "cited, not measured here", "key": {"[1]": {"settings": "daily dosage of 5-10 mg for 3 months"}, "HMG-CoA reductase": {"target": "T1, HMG-CoA reductase (Homo sapiens, UniProt P04035)", "T1 sequence (P04035 1-888)": "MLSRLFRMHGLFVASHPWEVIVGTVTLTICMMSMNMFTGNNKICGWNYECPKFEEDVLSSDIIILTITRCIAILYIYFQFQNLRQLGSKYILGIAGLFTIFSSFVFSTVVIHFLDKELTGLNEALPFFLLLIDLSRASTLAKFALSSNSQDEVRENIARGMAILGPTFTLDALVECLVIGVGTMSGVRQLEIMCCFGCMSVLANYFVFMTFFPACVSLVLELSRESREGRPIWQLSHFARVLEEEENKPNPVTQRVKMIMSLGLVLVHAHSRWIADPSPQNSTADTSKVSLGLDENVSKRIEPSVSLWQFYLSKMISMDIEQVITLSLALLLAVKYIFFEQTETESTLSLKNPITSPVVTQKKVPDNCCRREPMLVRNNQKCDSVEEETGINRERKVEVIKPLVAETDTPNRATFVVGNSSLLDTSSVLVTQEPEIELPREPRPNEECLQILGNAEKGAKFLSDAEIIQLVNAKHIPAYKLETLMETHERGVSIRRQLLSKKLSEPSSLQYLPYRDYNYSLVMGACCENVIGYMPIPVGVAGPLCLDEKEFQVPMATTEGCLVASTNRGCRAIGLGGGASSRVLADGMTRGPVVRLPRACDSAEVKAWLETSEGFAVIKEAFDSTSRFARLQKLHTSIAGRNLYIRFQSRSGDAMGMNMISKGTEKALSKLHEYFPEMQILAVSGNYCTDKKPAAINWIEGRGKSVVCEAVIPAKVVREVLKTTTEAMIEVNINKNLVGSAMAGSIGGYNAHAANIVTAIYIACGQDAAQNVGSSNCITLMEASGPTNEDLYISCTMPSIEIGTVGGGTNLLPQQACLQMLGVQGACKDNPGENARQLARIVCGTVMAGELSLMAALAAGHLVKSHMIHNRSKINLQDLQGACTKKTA", "settings": "compared with compactin"}}}
{"smiles": "CC[C@H](C)C(=O)O[C@H]1C[C@H](O)C=C2C=C[C@H](C)[C@H](CC[C@@H](O)C[C@@H](O)CC(=O)O)[C@H]21", "note": "[pravastatin]", "values": [{"measurement": "reduction of LDL-cholesterol level", "setting": "[1]", "value": "20-40%"}, {"measurement": "reduction of total cholesterol level", "setting": "[1]", "value": "20-40%"}, {"measurement": "effectiveness as a HMG-CoA reductase inhibitor", "setting": "HMG-CoA reductase", "value": "more effective than compactin"}]}
